Data as given in patent US20100267561A1, “HERBICIDAL PYRIDAZINONE DERIVATIVES” (priority 2007, published 2010).

Key:
Assay in all cases: Test E pre-/postemergence plant response
Type in all cases: in vivo
[1] = tested on: broadleaf signalgrass (Brachiaria platyphylla); settings: scale 0 to 100
Outline: (§1)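 Seeds were planted and treated preemergence with compound formulated in a non-phytotoxic solvent mixture containing surfactant; postemergence sprays in the same formulation went onto plants 2 to 18 cm tall (1- to 4-leaf stage). After 14 to 21 days in a greenhouse, injury versus untreated controls was rated visually, 0 (no effect) to 100 (complete control).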

[2] = tested on: common purslane (Portulaca oleracea); settings: scale 0 to 100
Outline: as §1

[3] = tested on: common groundsel (Senecio vulgaris); settings: Postemergence, scale 0 to 100
Outline: as §1

[4] = tested on: large crabgrass (Digitaria sanguinalis); settings: scale 0 to 100
Outline: as §1

[5] = tested on: goosegrass (Eleusine indica); settings: scale 0 to 100
Outline: as §1

[6] = tested on: naked crabgrass (Digitaria nuda); settings: scale 0 to 100
Outline: as §1

[7] = tested on: barnyardgrass (Echinochloa crus-galli); settings: scale 0 to 100
Outline: as §1

[8] = tested on: johnsongrass (Sorghum halepense); settings: scale 0 to 100
Outline: as §1

[9] = tested on: dallisgrass (Paspalum dilatatum); settings: scale 0 to 100
Outline: as §1

[10] = tested on: pitted morningglory (Ipomoea lacunosa); settings: scale 0 to 100
Outline: as §1

[11] = tested on: southern (S.) sandbur (Cenchrus echinatus); settings: scale 0 to 100
Outline: as §1

[12] = tested on: bermudagrass (Cynodon dactylon); settings: scale 0 to 100
Outline: as §1

[13] = tested on: guineagrass (Panicum maximum); settings: scale 0 to 100
Outline: as §1

[14] = tested on: black mustard (Brassica nigra); settings: scale 0 to 100
Outline: as §1

[15] = tested on: purple nutsedge (Cyperus rotundus); settings: scale 0 to 100
Outline: as §1

[16] = tested on: annual bluegrass (Poa annua); settings: scale 0 to 100
Outline: as §1

[17] = tested on: Italian ryegrass (Lolium multiflorum); settings: scale 0 to 100
Outline: as §1

Cc1cc(-c2ccc(Cl)cc2)nn1-c1c(OS(=O)(=O)c2ccccc2)cnn(C)c1=O [Compound 35]
95: Plant response rating, Crabgrass, Large ([4]; 31 g ai/ha, Preemergence) | Plant response rating, Crabgrass, Naked ([6]; Postemergence, 31 g ai/ha) | Plant response rating, Crabgrass, Naked ([6]; Postemergence, 62 g ai/ha) | Plant response rating, Barnyardgrass ([7]; 31 g ai/ha, Preemergence) | Plant response rating, Guineagrass ([13]; Postemergence, 62 g ai/ha) | Plant response rating, Ryegrass, Italian ([17]; Postemergence, 62 g ai/ha)
60: Plant response rating, Signalgrass ([1]; Postemergence, 8 g ai/ha) | Plant response rating, Crabgrass, Large ([4]; Postemergence, 16 g ai/ha) | Plant response rating, Barnyardgrass ([7]; Postemergence, 8 g ai/ha) | Plant response rating, Dallisgrass ([9]; Postemergence, 62 g ai/ha) | Plant response rating, Bermudagrass ([12]; 8 g ai/ha, Preemergence) | Plant response rating, Ryegrass, Italian ([17]; Postemergence, 31 g ai/ha)
40: Plant response rating, Goosegrass ([5]; Postemergence, 31 g ai/ha) | Plant response rating, Barnyardgrass ([7]; 8 g ai/ha, Preemergence) | Plant response rating, Johnsongrass ([8]; Postemergence, 8 g ai/ha) | Plant response rating, Dallisgrass ([9]; 16 g ai/ha, Preemergence) | Plant response rating, Sandbur, S. ([11]; Postemergence, 8 g ai/ha)
0: Plant response rating, Purslane ([2]; 16 g ai/ha, Preemergence) | Plant response rating, Purslane ([2]; 31 g ai/ha, Preemergence) | Plant response rating, Purslane ([2]; 62 g ai/ha, Preemergence) | Plant response rating, Purslane ([2]; Postemergence, 8 g ai/ha) | Plant response rating, Purslane ([2]; Postemergence, 16 g ai/ha) | Plant response rating, Purslane ([2]; Postemergence, 31 g ai/ha) | Plant response rating, Purslane ([2]; Postemergence, 62 g ai/ha) | Plant response rating, Groundsel ([3]; 8 g ai/ha) | Plant response rating, Groundsel ([3]; 16 g ai/ha) | Plant response rating, Dallisgrass ([9]; 8 g ai/ha, Preemergence) | Plant response rating, Morningglory ([10]; 16 g ai/ha, Preemergence) | Plant response rating, Morningglory ([10]; 31 g ai/ha, Preemergence) | Plant response rating, Morningglory ([10]; 62 g ai/ha, Preemergence) | Plant response rating, Morningglory ([10]; Postemergence, 8 g ai/ha) | Plant response rating, Morningglory ([10]; Postemergence, 16 g ai/ha) | Plant response rating, Morningglory ([10]; Postemergence, 31 g ai/ha) | Plant response rating, Morningglory ([10]; Postemergence, 62 g ai/ha) | Plant response rating, Mustard, Black ([14]; 8 g ai/ha, Preemergence) | Plant response rating, Mustard, Black ([14]; 16 g ai/ha, Preemergence) | Plant response rating, Mustard, Black ([14]; 31 g ai/ha, Preemergence) | Plant response rating, Mustard, Black ([14]; 62 g ai/ha, Preemergence) | Plant response rating, Mustard, Black ([14]; Postemergence, 8 g ai/ha) | Plant response rating, Mustard, Black ([14]; Postemergence, 16 g ai/ha) | Plant response rating, Mustard, Black ([14]; Postemergence, 31 g ai/ha) | Plant response rating, Mustard, Black ([14]; Postemergence, 62 g ai/ha) | Plant response rating, Nutsedge, Purple ([15]; 16 g ai/ha, Preemergence) | Plant response rating, Nutsedge, Purple ([15]; 62 g ai/ha, Preemergence) | Plant response rating, Nutsedge, Purple ([15]; Postemergence, 8 g ai/ha) | Plant response rating, Nutsedge, Purple ([15]; Postemergence, 16 g ai/ha) | Plant response rating, Nutsedge, Purple ([15]; Postemergence, 31 g ai/ha) | Plant response rating, Nutsedge, Purple ([15]; Postemergence, 62 g ai/ha) | Plant response rating, Bluegrass ([16]; 8 g ai/ha, Preemergence) | Plant response rating, Bluegrass ([16]; 16 g ai/ha, Preemergence) | Plant response rating, Bluegrass ([16]; 31 g ai/ha, Preemergence) | Plant response rating, Bluegrass ([16]; 62 g ai/ha, Preemergence) | Plant response rating, Bluegrass ([16]; Postemergence, 8 g ai/ha) | Plant response rating, Bluegrass ([16]; Postemergence, 16 g ai/ha) | Plant response rating, Bluegrass ([16]; Postemergence, 31 g ai/ha) | Plant response rating, Bluegrass ([16]; Postemergence, 62 g ai/ha)
20: Plant response rating, Crabgrass, Large ([4]; 8 g ai/ha, Preemergence) | Plant response rating, Crabgrass, Large ([4]; 16 g ai/ha, Preemergence) | Plant response rating, Goosegrass ([5]; 8 g ai/ha, Preemergence) | Plant response rating, Ryegrass, Italian ([17]; Postemergence, 8 g ai/ha) | Plant response rating, Ryegrass, Italian ([17]; Postemergence, 16 g ai/ha)
100: Plant response rating, Signalgrass ([1]; 31 g ai/ha, Preemergence) | Plant response rating, Signalgrass ([1]; 62 g ai/ha, Preemergence) | Plant response rating, Signalgrass ([1]; Postemergence, 62 g ai/ha) | Plant response rating, Crabgrass, Large ([4]; 62 g ai/ha, Preemergence) | Plant response rating, Goosegrass ([5]; 31 g ai/ha, Preemergence) | Plant response rating, Goosegrass ([5]; 62 g ai/ha, Preemergence) | Plant response rating, Crabgrass, Naked ([6]; 31 g ai/ha, Preemergence) | Plant response rating, Crabgrass, Naked ([6]; 62 g ai/ha, Preemergence) | Plant response rating, Barnyardgrass ([7]; 62 g ai/ha, Preemergence) | Plant response rating, Barnyardgrass ([7]; Postemergence, 31 g ai/ha) | Plant response rating, Barnyardgrass ([7]; Postemergence, 62 g ai/ha) | Plant response rating, Sandbur, S. ([11]; 62 g ai/ha, Preemergence) | Plant response rating, Bermudagrass ([12]; 62 g ai/ha, Preemergence) | Plant response rating, Guineagrass ([13]; 16 g ai/ha, Preemergence) | Plant response rating, Guineagrass ([13]; 31 g ai/ha, Preemergence) | Plant response rating, Guineagrass ([13]; 62 g ai/ha, Preemergence) | Plant response rating, Ryegrass, Italian ([17]; 31 g ai/ha, Preemergence) | Plant response rating, Ryegrass, Italian ([17]; 62 g ai/ha, Preemergence)
80: Plant response rating, Signalgrass ([1]; 16 g ai/ha, Preemergence) | Plant response rating, Crabgrass, Large ([4]; Postemergence, 62 g ai/ha) | Plant response rating, Barnyardgrass ([7]; 16 g ai/ha, Preemergence) | Plant response rating, Johnsongrass ([8]; 31 g ai/ha, Preemergence) | Plant response rating, Bermudagrass ([12]; 16 g ai/ha, Preemergence) | Plant response rating, Bermudagrass ([12]; Postemergence, 31 g ai/ha) | Plant response rating, Guineagrass ([13]; Postemergence, 31 g ai/ha)
65: Plant response rating, Bermudagrass ([12]; Postemergence, 16 g ai/ha)
30: Plant response rating, Goosegrass ([5]; Postemergence, 8 g ai/ha) | Plant response rating, Goosegrass ([5]; Postemergence, 16 g ai/ha) | Plant response rating, Dallisgrass ([9]; Postemergence, 8 g ai/ha) | Plant response rating, Dallisgrass ([9]; Postemergence, 16 g ai/ha)
98: Plant response rating, Crabgrass, Naked ([6]; 16 g ai/ha, Preemergence) | Plant response rating, Johnsongrass ([8]; Postemergence, 62 g ai/ha) | Plant response rating, Bermudagrass ([12]; 31 g ai/ha, Preemergence) | Plant response rating, Ryegrass, Italian ([17]; 16 g ai/ha, Preemergence)
90: Plant response rating, Johnsongrass ([8]; 62 g ai/ha, Preemergence) | Plant response rating, Dallisgrass ([9]; 31 g ai/ha, Preemergence) | Plant response rating, Dallisgrass ([9]; 62 g ai/ha, Preemergence) | Plant response rating, Sandbur, S. ([11]; 31 g ai/ha, Preemergence) | Plant response rating, Bermudagrass ([12]; Postemergence, 62 g ai/ha)
70: Plant response rating, Signalgrass ([1]; Postemergence, 16 g ai/ha) | Plant response rating, Johnsongrass ([8]; Postemergence, 31 g ai/ha)
35: Plant response rating, Bermudagrass ([12]; Postemergence, 8 g ai/ha)
75: Plant response rating, Signalgrass ([1]; Postemergence, 31 g ai/ha) | Plant response rating, Crabgrass, Large ([4]; Postemergence, 31 g ai/ha) | Plant response rating, Goosegrass ([5]; 16 g ai/ha, Preemergence) | Plant response rating, Goosegrass ([5]; Postemergence, 62 g ai/ha) | Plant response rating, Crabgrass, Naked ([6]; 8 g ai/ha, Preemergence) | Plant response rating, Barnyardgrass ([7]; Postemergence, 16 g ai/ha) | Plant response rating, Johnsongrass ([8]; 16 g ai/ha, Preemergence) | Plant response rating, Sandbur, S. ([11]; 16 g ai/ha, Preemergence) | Plant response rating, Sandbur, S. ([11]; Postemergence, 16 g ai/ha) | Plant response rating, Sandbur, S. ([11]; Postemergence, 31 g ai/ha) | Plant response rating, Sandbur, S. ([11]; Postemergence, 62 g ai/ha) | Plant response rating, Guineagrass ([13]; Postemergence, 8 g ai/ha) | Plant response rating, Guineagrass ([13]; Postemergence, 16 g ai/ha)
50: Plant response rating, Crabgrass, Large ([4]; Postemergence, 8 g ai/ha) | Plant response rating, Crabgrass, Naked ([6]; Postemergence, 8 g ai/ha) | Plant response rating, Crabgrass, Naked ([6]; Postemergence, 16 g ai/ha) | Plant response rating, Johnsongrass ([8]; Postemergence, 16 g ai/ha) | Plant response rating, Dallisgrass ([9]; Postemergence, 31 g ai/ha)
